This assay relates to HIV-1 protease. Conditions: for potency relative to the P-9 peptide: protease inhibitor potency compared with P-9 as standard.

Molecules are shown by their SMILES. Where a SMILES comes first, the peptide text is derived from it. [ ]: non-standard residue; d: D form. Phe(4-NH2) = Nc1ccc(C[C@H](N)C(=O)O)cc1; Sta = CC(C)C[C@H](N)[C@@H](O)CC(=O)O

The text below walks through data of patent EP0431784A2, “Methods for treating retroviral infection” (ELI LILLY AND COMPANY, priority 1989, dated 1991).

Procedure: A 100 µl control reaction was established containing 10 to 20 µI of crude protease, about 2 µl of the gag supernatant and final concentrations of 50 mM MES Buffer (pH 5.5), 1 mM DTT and 25 mM NaCI. Inhibition assays were performed by pre-incubating the crude protease with an inhibitory compound at room temperature for about 30 minutes before adding the gag supernatant to the reaction. Both the control and the experimental reactions were incubated from three to sixteen hours at 37° C. The reactions were then electrophoresed and blotted onto nitrocellulose filters. Monoclonal antibodies which recognize epitopes on p24 and p17 viral proteins were contacted with the filter then visualized using standard biotinylation or radionuclear techniques. Compounds which prevented the maturation of the gag polypeptide into mature viral proteins p24 and p17 were then ranked according to their HIV-1 protease inhibitory activity.
About 10 to 20 µl of the crude protease lysate was mixed with about 2 µl of the gag supernatant. The mixture was then brought to a total volume of 100 µl by the addition of distilled water, MES buffer (2-(N-Morpholino]ethanesulfonic acid) (pH 5.5 to a total concentration of 50 mM), DTT (dithiolthreitol) (to a total concentration of 1 mM) and NaCl (to a total concentration of 25 mM). This reaction mixture was mixed gently then incubated from 3 hours to overnight at 37° C.
Next, about 25 µl of the reaction was mixed with loading buffer and subjected to polyacrylamide gel electrophoresis on a 12.5% Laemmli gel under reducing conditions. The proteins were transferred onto a nitrocellulose filter using standard "Western Blot" electrophoresis at 500 mAmps for 35 minutes at room temperature. The filter was air-dried, then non-specific immunoreaction was blocked by washing the filter for 30 minutes at 4° C in a solution of 3% non-fat dry milk powder in phosphate buffered saline (PBS).
Monoclonal antibodies against p17 and/or p24 (available from Dupont, Wilmington, Delaware) were added to about 40 ml of the 3% milk/PBS solution to a final concentration of 2 µg/ml. The nitrocellulose filter was added to the antisera solution and slowly rocked for 2 hours at 4 C. The filter then was removed and washed 5 times with PBS, then the maturation of the gag gene was determined by reaction with 1^125- labeled protein A or by reaction with biotinylated anti-mouse lgG antibodies (Vecta Stain@).
To run the I^125-labeled protein A reaction, about 10 µCi of I^125-labeled protein A was added to 100 ml of the 3% milk/PBS solution. The filter was rocked in this solution for 2 hours at 4° C, washed three times with PBS, then two times with PBS and 0.1% Tween 20. The filter was then air-dried and exposed to x-ray film for autoradiography.
The Vecta Stain@ (Vector Laboratories, Burlingome, California) procedure was performed according to the manufacturer's recommendations. Four drops of the biotinylated IgG was added to 40 mls of the 3% Milk/PBS solution, then the filter was rocked in this solution for 60 minutes at 4° C. The filter was washed five times with PBS, then rocked for 30 to 60 minutes at 4 C in Reagent ABC. Reagent ABC was prepared by adding 4 drops of Reagent A (Avidin DH) and 4 drops of Reagent B (biotinylated peroxidase) to 20 ml of 3% Milk/PBS. The filter was then washed five times with PBS, then the filter was developed by washing it for 5 to 10 minutes in 10 ml of PBS containing 0.02% H202 and 10 ml of 4-chloro-1 naphthol. When the color was fully developed, the filter was washed with distilled water and air-dried.
Following the procedure, it is simple to determine the activity of the HIV-1 protease encoded on plasmid pHP10D and produced in E. coli cells.

`COc1ccc(C[C@H](NC(C)=O)C(=O)N2CCC[C@H]2C(=O)N[C@@H](Cc2ccccc2)C(=O)N[C@H](C(=O)N[C@@H](CC(C)C)[C@@H](O)CC(=O)N[C@@H](CC(C)C)C(=O)N[C@@H](Cc2ccccc2)C(=O)N[C@@H](Cc2ccc(O)cc2)C(=O)N[C@@H](CC(C)C)C(N)=O)C(C)C)cc1` [P-30, Ac-YOM-Pro-Phe-Val-Statine-Leu-Phe-Tyr-Leu-NH2] (Ac-Y(Me)PFV[Sta]LFYL-NH2): the “potency relative to the P-9 peptide” value is recorded as “about 1.5 times”.
With `CC(=O)N[C@H](C(=O)N[C@@H](CC(C)C)[C@@H](O)CC(=O)N[C@@H](CC(C)C)C(=O)N[C@@H](Cc1ccccc1)C(N)=O)C(C)C` [Ac-Val-Statine-Leu-Phe-NH2] (Ac-V[Sta]LF-NH2), the “HIV protease inhibitory activity (result in words)” value is “inactive”.
Take `COc1ccc(C[C@H](NC(C)=O)C(=O)N[C@@H](Cc2ccccc2)C(=O)N[C@H](C(=O)N[C@@H](CC(C)C)[C@@H](O)CC(=O)N[C@@H](CC(C)C)C(=O)N[C@@H](Cc2ccccc2)C(=O)N[C@@H](Cc2ccc(O)cc2)C(=O)N[C@@H](CC(C)C)C(N)=O)C(C)C)cc1` [Ac-YOM-Phe-Val-Statine-Leu-Phe-Tyr-Leu-NH2] (Ac-Y(Me)FV[Sta]LFYL-NH2): the “HIV protease inhibitory activity (result in words)” value is “totally inactive”.
On to `COc1ccc(C[C@H](NC(C)=O)C(=O)N2CCC[C@H]2C(=O)N[C@@H](Cc2ccccc2)C(=O)N[C@H](C(=O)N[C@@H](CC(C)C)[C@@H](O)CC(=O)N[C@@H](CC(C)C)C(=O)N[C@@H](Cc2ccccc2)C(N)=O)C(C)C)cc1` [P-9, Ac-YOM-Pro-Phe-Val-Statine-Leu-Phe-NH2] (Ac-Y(Me)PFV[Sta]LF-NH2), for which the “potency relative to P-7” value (protease inhibitor potency compared with P-7) is recorded as “increases the potency three to four times”.
Turning to `COc1ccc(C[C@H](NC(=O)[C@H](Cc2ccc(O)cc2)NC(=O)CNC(C)=O)C(=O)N2CCC[C@H]2C(=O)N[C@@H](Cc2ccccc2)C(=O)N[C@H](C(=O)N[C@@H](CC(C)C)[C@@H](O)CC(=O)N[C@@H](CC(C)C)C(=O)N[C@@H](Cc2ccccc2)C(N)=O)C(C)C)cc1` [P-29, Ac-Gly-Tyr-YOM-Pro-Phe-Val-Statine-Leu-Phe-NH2] (Ac-GYY(Me)PFV[Sta]LF-NH2), the “potency relative to the P-9 peptide” value is recorded as “three times more potent”.
`CC(C)C[C@H](NC(=O)C[C@H](O)[C@H](CC(C)C)NC(=O)[C@@H](NC(=O)[C@H](Cc1ccccc1)NC(=O)[C@@H]1CCCN1C(=O)[C@H](Cc1ccc(N)cc1)NC(=O)[C@@H]1CCCN1)C(C)C)C(=O)N[C@@H](Cc1ccccc1)C(=O)N[C@@H](Cc1ccc(N)cc1)C(N)=O` [P-1, H-Pro-paF-Pro-Phe-Val-Statine-Leu-Phe-paF-NH2] (H-P[Phe(4-NH2)]PFV[Sta]LF[Phe(4-NH2)]-NH2): the “potency relative to the R,S-diastereomer (P-28)” value ((S,S) Statine versus R,S-Sta peptide) came out at 20 times.
